Each structure is given as a SMILES string. Like-named read-outs stand apart in the source and are kept apart here.

The term inhibition denotes the drop in the measured response relative to a control, in per cent.

On the set-up of assay [1]: method as in PMID 36671001. The conditions noted are these: selenoester analogs, 0.03 mg/mL, 90 min; cited from earlier work.
The subject of assay [2] is DU-145 (prostate) cancer cell line. Kind of assay: MTT cell viability assay, DU-145. Format: cell-based, human. The conditions noted are these: Homo sapiens, DU-145, 48 h; for activity at 10 µM: read-out: Cell growth %, DU-145, 10 µM, 48 h, MTT; for activity at 50 µM: read-out: Cell growth %, DU-145, 50 µM, 48 h, MTT. On the procedure: (§1) Cell lines were purchased from the American Type Culture Collection (ATCC). Cell lines MDA-MB-231, HTB-54, DU-145, and BEAS-2B were cultured in RPMI 1640 medium (Gibco, Thermo Fisher Scientific, Gaithersburg, MD, USA) supplemented with 10% fetal bovine serum (FBS; Gibco), 100 units/mL penicillin, and […] streptomycin (Gibco). HT-29 cell line was grown in McCoy’s 5A (Gibco), 10% FBS, 100 units/mL penicillin, and 100 μg/mL streptomycin. Cells were maintained at 37 °C and 5% CO2. The culture medium was changed every three days.
(§2) The cell viability of each compound was measured by MTT colorimetric assay. Each compound was dissolved in DMSO at a concentration of 0.01 M. Each compound was tested at two different concentrations (10 and 50 µM) in MDA-MB-231 (breast), HTB-54 (lung), DU-145 (prostate), and HT-29 (colon) human cancer cell lines. Serial dilutions were prepared with supplemented culture medium. […] IC50 and selectivity indexes (SI) were determined.
(§3) Briefly, 1 × 10^4 tumor cells per well were grown in 96-well plates for 24 h. Then, these cells were incubated for 48 h with either DMSO (control) or a different concentration of each of the tested compounds. The cell viability was determined by adding 20 μL of MTT two hours and a half before the termination point. After this time, the culture medium was removed. The resulting formazan crystals were dissolved in 50 μL of DMSO, and the absorbance was measured at 570 nm. Results are expressed as % cell growth. The data were obtained from at least three independent experiments performed in quadruplicate.

For assay [3], the system named is HTB-54 (lung) cancer cell line. Nature of the assay: MTT cell viability assay, HTB-54. Format: cell-based, human. The conditions noted are these: Homo sapiens, HTB-54, 48 h; for activity at 10 µM: read-out: Cell growth %, HTB-54, 10 µM, 48 h, MTT; for activity at 50 µM: read-out: Cell growth %, HTB-54, 50 µM, 48 h, MTT. On the procedure:
as §1, §2, §3
(In general: Tetrazolium assays rely on reduction of a dye to a coloured formazan, in cell work by metabolically active cells.)

In assay [4] the test system is MDA-MB-231 (breast) cancer cell line. Nature of the assay: MTT cell viability assay, MDA-MB-231. Format: cell-based, human. The conditions noted are these: Homo sapiens, MDA-MB-231, 48 h; for activity at 10 µM: read-out: Cell growth %, MDA-MB-231, 10 µM, 48 h, MTT; for activity at 50 µM: read-out: Cell growth %, MDA-MB-231, 50 µM, 48 h, MTT. On the procedure: as §1, §2, §3

In assay [5] the test system is HT-29 (colon) cancer cell line. Kind of assay: MTT cell viability assay, HT-29. The conditions noted are these: Homo sapiens, HT-29, 48 h, read-out: Cell growth %; for activity at 10 µM: HT-29, 10 µM; for activity at 50 µM: HT-29, 50 µM. Format: cell-based. On the procedure:
as §1, §2, §3

Assay [6] can be described thus: DPPH radical scavenging assay. Format: biochemical. The conditions noted are these: for DPPH Inhibitory%: acylselenourea analogs. On the procedure: Different methods are available to quantify the antioxidant capacity of natural or novel molecules. Notable among these are the ABTS^•+ and DPPH^• methods, which measure the quenching efficiency in vitro for known concentrations of preformed radicals. In this work, the DPPH^• colorimetric assay was carried out. Measurements were recorded on a BioTeck PowerWave XS spectrophotometer (BioTeck Instruments, Winooski, VT, USA) and data were collected using KCJunior v.1.41. software (BioTeck Instruments, Winooski, VT, USA). Compounds with potent activity were selected to further determine their protective effect against ROS-induced cell death caused by H2O2.
DPPH colorimetric assay was performed to determine the in vitro radical scavenging activity of the acylselenourea derivatives. DPPH assay was performed as described by Svinyarov. For each acylselenourea, a stock solution of 1 mg/mL in dimethyl sulfoxide (DMSO) was made, and these solutions were used to prepare the different concentrations employed in the assay. The compounds were tested at two different concentrations (0.003 and 0.03 mg/mL). Intermediate solutions were prepared in methanol and a volume of 100 µL of each was added to each well of the plate. Then, 100 µL of DPPH^• (previously prepared at a concentration of 0.04 mg/mL in methanol and preserved in the dark) was added to the previous methanolic acylselenourea solutions. The discoloration of the purple radical to the yellow reduced form was followed at 517 nm at different time points (0, 5, 15, 30, 60, 90, and 120 min). Ascorbic acid and trolox were used as positive controls. All measurements were carried out in triplicate. Results are expressed as the percentage of the radicals scavenged, calculated using the following formula: (1) % DPPH radical scavenging=Acontrol - Asample/Acontrol × 100 where Acontrol refers to the absorbance of the negative control and Asample refers to the absorbance of the tested compounds. Results are expressed as percentage of DPPH radical scavenging ± SD.
A general note: The DPPH test is a chemical assay of radical scavenging.

For the molecule `C#CC[Se]C(=O)c1cccnc1` [C00003 3-pyridyl], the “DPPH Inhibitory%” value in assay [1] is reported as 7.4 ± 0.7%.

In the case of `C=CCNC(=O)c1cccc(C(=O)NC(=[Se])NCC=C)c1` [Compound 11.II, N^1-allyl-N^3-(allylcarbamoselenoyl)isophthalamide], the activity at 10 µM was 93.8 ± 8% in assay [2], 48.3 ± 6.9% in assay [3], 77.1 ± 10.1% in assay [4] and 88.1 ± 4.8% in assay [5]. Further, the activity at 50 µM in assay [2] amounted to 22 ± 5.8%; in assay [3] it was 5.94 ± 4.7%; in assay [4], 14.7 ± 7.8%; in assay [5], 30.8 ± 4%. For the same molecule, the inhibition in assay [6] (0.003 mg/mL, 0 min) came out at 0%; in assay [6] (0.003 mg/mL, 5 min), 2.5 ± 1.4%; in assay [6] (0.003 mg/mL, 15 min), 5.8 ± 1.2%; in assay [6] (0.003 mg/mL, 30 min) it was 8.6 ± 0.9%; in assay [6] (0.003 mg/mL, 60 min), 11.6 ± 1%; in assay [6] (0.003 mg/mL, 90 min), 12.8 ± 0.8%. Further, the inhibition stood at 13.5 ± 0.7% in assay [6] (0.003 mg/mL, 120 min); 11 ± 3% in assay [6] (0.03 mg/mL, 0 min); 38.5 ± 0.3% in assay [6] (0.03 mg/mL, 5 min); 56.8 ± 0.6% in assay [6] (0.03 mg/mL, 15 min); 70.1 ± 1% in assay [6] (0.03 mg/mL, 30 min); 83 ± 1% in assay [6] (0.03 mg/mL, 60 min). For the same molecule, the inhibition in assay [6] (0.03 mg/mL, 90 min) was found to be 89.6 ± 1.2%; in assay [6] (0.03 mg/mL, 120 min) it was 94.3 ± 1.2%.

In the case of `C#CC[Se]C(=O)c1ccc2c(c1)OCO2` [C00003 5-benzo[d][1, 3]dioxyl], in assay [1], the “DPPH Inhibitory%” value is on record as 4.2 ± 8.0%.

Turning to `C#CC[Se]C(=O)c1ccccc1` [C00003 phenyl], the “DPPH Inhibitory%” value in assay [1] is on record as 3.5 ± 0.9%.

For the molecule `C#CC[Se]C(=O)C=Cc1ccccc1` [C00003 2-phenylvinyl], the “DPPH Inhibitory%” value in assay [1] is on record as 2.4 ± 2.0%.

Take `C#CCNC(=[Se])NC(=O)c1ccccc1` [Compound 5.III, N-(prop-2-in-1-ylcarbamoselenoyl)benzamide]: the activity at 10 µM was found to be 80.8 ± 7.4% in assay [2], 76 ± 4.8% in assay [3], 78.5 ± 12% in assay [4] and 70 ± 8.7% in assay [5]. In addition, the activity at 50 µM in assay [2] came to 26.3 ± 6.5%; in assay [3] it was 33.4 ± 8.6%; in assay [4], 33.3 ± 6.5%; in assay [5] it was 33.9 ± 4.5%. For the same molecule, the inhibition in assay [6] (0.003 mg/mL, 0 min) came to 0.6 ± 1.2%; in assay [6] (0.003 mg/mL, 5 min) it was 2.9 ± 1%; in assay [6] (0.003 mg/mL, 15 min) it was 5.1 ± 1.3%; in assay [6] (0.003 mg/mL, 30 min), 7.2 ± 1.6%; in assay [6] (0.003 mg/mL, 90 min) it was 11.3 ± 2%; in assay [6] (0.003 mg/mL, 120 min), 12.3 ± 2.1%. Besides, the inhibition in assay [6] (0.03 mg/mL, 0 min) is 9.3 ± 1%; in assay [6] (0.03 mg/mL, 5 min), 9.8 ± 0.3%; in assay [6] (0.03 mg/mL, 15 min), 23 ± 0.3%; in assay [6] (0.03 mg/mL, 30 min) it was 34 ± 0.6%; in assay [6] (0.03 mg/mL, 60 min), 46.6 ± 0.9%; in assay [6] (0.03 mg/mL, 120 min) it was 60.2 ± 0.7%. The “DPPH Inhibitory%” value in assay [6] (0.03 mg/mL, 90 min) is given as 54.6 ± 0.8%.

Take `C#CC[Se]C(=O)c1cccs1` [C00003 2-thiophenyl]: in assay [1], the “DPPH Inhibitory%” value was 0.0 ± 2.1%.

`C#CCNC(=[Se])NC(=O)c1ccco1` [Compound 1.III, N-(prop-2-in-1-ylcarbamoselenoyl)furan-2-carboxamide]: the activity at 10 µM in assay [2] amounted to 42.4 ± 4.8%; in assay [3] it was 76 ± 4.8%; in assay [4], 66.3 ± 16.7%; in assay [5], 84 ± 16.8%. For the same molecule, the activity at 50 µM in assay [2] was found to be 15.2 ± 1.2%; in assay [3] it was 48 ± 4.2%; in assay [4] it was 17.6 ± 9.3%; in assay [5], 17.2 ± 4.2%. Moreover, the inhibition was 1.5 ± 0.7% in assay [6] (0.003 mg/mL, 0 min); 3.4 ± 0.6% in assay [6] (0.003 mg/mL, 5 min); 4.9 ± 0.7% in assay [6] (0.003 mg/mL, 15 min); 6.5 ± 0.7% in assay [6] (0.003 mg/mL, 30 min); 8.5 ± 1% in assay [6] (0.003 mg/mL, 60 min); 9.6 ± 0.9% in assay [6] (0.003 mg/mL, 90 min). Also, the inhibition in assay [6] (0.003 mg/mL, 120 min) worked out at 10 ± 0.8%; in assay [6] (0.03 mg/mL, 0 min) it was 11.8 ± 1.7%; in assay [6] (0.03 mg/mL, 5 min) it was 15.2 ± 4.4%; in assay [6] (0.03 mg/mL, 15 min), 23.5 ± 3.9%; in assay [6] (0.03 mg/mL, 30 min), 31.2 ± 3.7%; in assay [6] (0.03 mg/mL, 60 min), 40.9 ± 4.3%. Moreover, the inhibition in assay [6] (0.03 mg/mL, 120 min) amounted to 48.1 ± 0.4%. Moreover, the “DPPH Inhibitory%” value in assay [6] (0.03 mg/mL, 90 min) worked out at 42.6 ± 0.6%.

The values above are taken from PMC10376326, “Novel Acylselenourea Derivatives: Dual Molecules with Anticancer and Radical Scavenging Activity” (Antioxidants, 2023).
